According to patent US8512678B2, “Non-invasive, in vivo fluorescent imaging of the nervous system in whole living animal” (priority 2005, dated 2013):
“Also recorded” adds a separate entry of the source.

What was measured:
GFAP-GFP transgene = test: Non-invasive in vivo neural imaging of GFAP-GFP transgenic neonatal mice (relative fluorescence, IVIS); parameters: species or system mouse; settings: for increase in relative fluorescence (RF), mean, compared to 0 hr: 6 hr after treatment; for increase in relative fluorescence (RF), mean, over the control group: 6 hr post-treatment, P<0.01
Source text: The generation and genotyping of the transgenic GFAP-GFP mice were done as previously described (Zhuo et al., 1997). Neonatal mice of FVB/N background at 4 days of age, weighing 2.0 g-2.5 g were used in the present study. Animal husbandry was provided by National University of Singapore animal holding unit facility. The experimental protocol covering the current study was approved by the Institutional Animal Care and Use Committee.
The neonatal mice received a single subcutaneous (sc) injection of 2′-CH3-MPTP (12 mg/kg in saline) at 0 hour. Saline was used as a vehicle for the control group. Neural imaging was subsequently performed at 2 hr, 4 hr, 6 hr and 8 hr post-treatment.
Non-invasive imaging was conducted using an IVIS Imaging System 100 Series (Xenogen Corp., Alameda, Calif., U.S.A.). A 2′-CH3-MPTP-treated pair comprising of a transgenic and a non-transgenic neonatal mouse was positioned beside one another and held in position without anesthesia by physically restraining the mice on the lower back using tape. […] Subsequently, the pair of neonatal mice were fluorescently imaged with the GFP filter set equipped with the IVIS system. The image acquisition time was ten seconds. The same procedure was applied on the control pair injected with saline as well. Result of the neurotoxic effect of 2′-CH3-MPTP on the mice was expressed as relative fluorescence (RF), a ratio between the total GFP fluorescent signals detected from the region of interest (ROI) in transgenic (Tg) mouse and the tissue autofluorescence signals from the ROI in non-transgenic (nTg) mouse (TgROI/nTgROI). The area of the ROI for both mice is exactly the same and is identical throughout all the ROI used in the study to quantify the radiances. To minimize any variations due to the imaging system, three images were captured for each pair of treated and control mice and the mean value derived used as the quantitative reading for that particular pair. The values of the control (n=5 pairs of mice) and treated groups (n=5 pairs of mice) were expressed as means±SEM and statistical significance was evaluated using Student's two-tailed paired t-test.
The neurotoxin used was 2′-CH3-MPTP.
The neurotoxins used were 2′-CH3-MPTP and Kainic Acid (KA). […] KA was used in dosages 2 mg/kg with one injection. All injections were carried out subcutaneously.

[1] = system: GFP expression in the astrocytes; test: Confocal imaging of endogenous GFP with GFAP immunostaining in brain cryosections; type: in vivo, mouse; settings: for GFP expression in the astrocytes: Tg mice
Description: (§1) In order to determine whether the photons were being emitted from the astrocytes in the CNS, the brains were harvested and fixed with 4% paraformaldehyde in 0.1 M phosphate buffer saline (PBS, pH 7.4) for 4 hr at 4° C. The brains were then washed three times in PBS with an incubation time of 15 min each time before soaking in 30% sucrose overnight at 4° C. All brains were embedded in freezing medium after immersing the tissues in liquid nitrogen prior to mounting and sectioning them using a cryostat (Leica Microsystems, Nussloch GmbH; CM-3050S). Coronal cryosections, 20 μm in thickness of the substantia nigra (bregma −3.16 mm, interaural 0.64 mm) were used for immunohistochemistry according to the Atlas of Mouse brain (Franklin and Paxinos, 2001). Each of the control and treated group contained 4 animals […].
For tyrosine hydroxylase (TH) and GFAP immunostaining, a rabbit anti-TH polyclonal antibody (Chemicon International, Temecula, Calif., USA; Ab-152) and a rabbit anti-GFAP polyclonal antibody (DakoCytomation, Denmark; Z-0334) were used. The cryosections were washed for 5 min in 0.15 M 1×PBS followed by incubating for 4 hr at 4° C. in blocking solution of PBS containing 0.1% (v/v) Triton X-100 and 10% nonimmune goat serum. The cryosections were then washed in 0.15 M 1×PBS three times, each for 15 min. The brain sections were then incubated overnight with anti-TH antibody (1:200) and anti-GFAP antibody (1:200), in 1×PBS containing 0.01% (v/v) Triton X-100 and 1% nonimmune goat serum at 4° C. After a three times 15 min rinse in 1×PBS, the sections were incubated with Texas-red conjugated goat polyclonal to rabbit secondary IgG antibody (Abcam Ltd, Cambridge, U.K.; Ab-7088) at 1:100 dilution in PBS containing 0.01% (v/v) Triton X-100 and 1% nonimmune goat serum for 2 hr at room temperature. After another three times 15 min rinse in 1×PBS, the sections were coverslipped in 10 μl of the fluorescence medium and viewed under the confocal laser scanning microscope (Olympus Optical Co. Ltd. Tokyo, Japan; IX-71).

[2] = system: tyrosine hydroxylase (TH) immuno-positive dopaminergic neurons; test: TH immunostaining in the substantia nigra compact (SNC); type: in vivo, mouse; settings: 6 hr after 12 mg/kg sc, neonatal mice
Description: as §1
For tyrosine hydroxylase (TH) and GFAP immunostaining, a rabbit anti-TH polyclonal antibody (Chemicon International, Temecula, Calif., USA; Ab-152) and a rabbit anti-GFAP polyclonal antibody (DakoCytomation, Denmark; Z-0334) were used. […] After another three times 15 min rinse in 1×PBS, the sections were coverslipped in 10 μl of the fluorescence medium and viewed under the confocal laser scanning microscope (Olympus Optical Co. Ltd. Tokyo, Japan; IX-71).

GFAP gene expression = test: Real-time RT-PCR of brain RNA, GFAP gene expression; type: in vivo, mouse; settings: transgenic mice, 2 hours after treatment, 1×2 mg/kg, p<0.01
Description: (§2) […] The brain was removed and then lysed in buffer RA1 and β-mercaptoethanol. Total RNA from the brain was isolated using NucleoSpin® RNA II kit. Total RNA was reverse-transcribed with random hexamers and real-time RT-PCR was performed on the cDNA to quantify gene expression.
(§3) The brain was removed and then lysed in buffer RA1 and β-mercaptoethanol. Total RNA from the brain was isolated using NucleoSpin® RNA II kit. Total RNA was reverse-transcribed with random hexamers and real-time RT-PCR was performed on the cDNA to quantify gene expression. The same procedure is carried out for mice treated with KA (1×2 mg/kg).

GFP gene expression = test: Real-time RT-PCR of brain RNA, GFP gene expression; type: in vivo, mouse; settings: transgenic mice, 2 hours after treatment, 1×2 mg/kg, p<0.05
Description: as §2, §3

Compound: Cc1ccccc1C1=CCN(C)CC1 [2′-CH3-MPTP, 1-methyl-4-(2′-methylphenyl)-1,2,3,6-tetrahydropyridine]
- increase in relative fluorescence (RF), mean, compared to 0 hr (GFAP-GFP transgene; single dose 12 mg/kg sc, neonatal mice, P<0.0001): 17%
- increase in relative fluorescence (RF), mean, over the control group (GFAP-GFP transgene; single dose 12 mg/kg sc, neonatal mice, brain ROI): 22%
- difference in relative fluorescence (RF) between treated and control group (GFAP-GFP transgene; single dose 12 mg/kg sc, at 4 hr, 6 hr and 8 hr after treatment): significant difference
- expression of the GFAP-GFP transgene in the astrocytes ([1]; SNC sections, 6 hr post-treatment as compared to 0 hr, 12 mg/kg sc): up-regulation
- GFP expression in the astrocytes ([1]; ventricle and hippocampus area, 6 hr after one-time 12 mg/kg sc): evidently increased
- TH immuno-positive fibers and cell bodies / TH-like immunoreactivity [2]: No visual reduction; also recorded: No obvious changes

Compound: C=C(C)[C@H]1CN[C@H](C(=O)O)[C@H]1CC(=O)O [KA, Kainic acid]
- increase in relative fluorescence (RF), mean, compared to 0 hr (GFAP-GFP transgene; single dose 2 mg/kg sc, P<0.05): 22%
- increase in relative fluorescence (RF), mean, over the control group (GFAP-GFP transgene; single dose 2 mg/kg sc, neonatal mice): 25%
- difference in relative fluorescence (RF) between treated and control group (GFAP-GFP transgene; single dose 2 mg/kg sc, at 4 hr and 6 hr after treatment): significant difference
- GFP expression in the astrocytes ([1]; various areas of the hippocampus (CA1, CA2, CA3), 6 hr after one-time 2 mg/kg sc): evidently increased
- enhancement in gene expression of GFAP (GFAP gene expression): about 21%
- enhancement in gene expression of GFP (GFP gene expression): ~22%

Compound: CN1CC=C(c2ccccc2)CC1 [MPTP, 1-methyl-4-phenyl-1,2,3,6-tetrahydropyridine]
- difference in RF between the different time intervals (GFAP-GFP transgene; single dose 12 mg/kg sc, neonatal transgenic mice (FIG. 9)): no significant difference
